Results from paper PMC10041525, “New Dual Inhibitors of Bacterial Topoisomerases with Broad-Spectrum Antibacterial Activity and In Vivo Efficacy against Vancomycin-Intermediate Staphylococcus aureus” (Journal of Medicinal Chemistry, 2023).
Where two headings read alike, the source gives them in different places.

Legend:
[1] = test system: 100 A. baumannii strains (50 MDR, 50 non-MDR); assay: MIC broth microdilution at IHMA Europe, panel of 100 strains; format: cell-based; conditions: for MIC / MIC50 / MIC90: Acinetobacter baumannii
[2] = test system: 3 sensitive and 7 MDR A. baumannii clinical isolates; assay: MIC, Hungarian clinical isolates and controls (384-well); format: cell-based; conditions: n=10; MIC 0.0625 µg/mL

C[C@H]1COc2c(N3CCN(C)CC3)c(F)cc3c(=O)c(C(=O)O)cn1c23.C[C@H]1COc2c(N3CCN(C)CC3)c(F)cc3c(=O)c(C(=O)O)cn1c23.O [Levofloxacin, levofloxacin]
MIC ([1]; A. baumannii IHMA 1769393, Lithuania 2018, Non-MDR): ≤ 0.25 mg/L | MIC ([1]; A. baumannii IHMA 1769782, Israel 2018, MDR): 4 mg/L | MIC ([1]; A. baumannii IHMA 1769910, Israel 2018, Non-MDR): ≤ 0.25 mg/L | MIC ([1]; A. baumannii IHMA 1790317, Czech Republic 2018, Non-MDR): ≤ 0.25 mg/L | MIC ([1]; A. baumannii IHMA 1790916, Romania 2018, Non-MDR): ≤ 0.25 mg/L | MIC ([1]; A. baumannii IHMA 1791877, Israel 2018, MDR): 4 mg/L | MIC ([1]; A. baumannii IHMA 1792961, Jordan 2018, MDR): 8 mg/L | MIC ([1]; A. baumannii IHMA 1795669, Tunisia 2018, Non-MDR): ≤ 0.25 mg/L | MIC ([1]; A. baumannii IHMA 1814276, Lebanon 2018, MDR): 16 mg/L | MIC ([1]; A. baumannii IHMA 1815198, Kuwait 2018, MDR): 16 mg/L | MIC ([1]; A. baumannii IHMA 1815856, Israel 2018, MDR): 8 mg/L | MIC ([1]; A. baumannii IHMA 1821468, South Africa 2018, Non-MDR): ≤ 0.25 mg/L | MIC ([1]; A. baumannii IHMA 1829500, Georgia 2018, Non-MDR): ≤ 0.25 mg/L | MIC ([1]; A. baumannii IHMA 1830924, United Kingdom 2018, Non-MDR): ≤ 0.25 mg/L | MIC ([1]; A. baumannii IHMA 1849819, Kuwait 2018, MDR): 16 mg/L | MIC ([1]; A. baumannii IHMA 1849829, Kuwait 2018, Non-MDR): ≤ 0.25 mg/L | MIC ([1]; A. baumannii IHMA 1857118, Slovenia 2018, Non-MDR): ≤ 0.25 mg/L | MIC ([1]; A. baumannii IHMA 1863631, France 2018, Non-MDR): ≤ 0.25 mg/L | MIC ([1]; A. baumannii IHMA 1870054, United States 2018, Non-MDR): ≤ 0.25 mg/L | MIC ([1]; A. baumannii IHMA 1884428, Italy 2018, Non-MDR): ≤ 0.25 mg/L | MIC ([1]; A. baumannii IHMA 1884990, Germany 2018, Non-MDR): ≤ 0.25 mg/L | MIC ([1]; A. baumannii IHMA 1900538, Turkey 2018, Non-MDR): ≤ 0.25 mg/L | MIC ([1]; A. baumannii IHMA 1913773, Kenya 2018, Non-MDR): ≤ 0.25 mg/L | MIC ([1]; A. baumannii IHMA 1926285, Qatar 2018, Non-MDR): ≤ 0.25 mg/L | MIC ([1]; A. baumannii IHMA 1926288, Qatar 2018, MDR): > 16 mg/L | MIC ([1]; A. baumannii IHMA 1957343, Portugal 2019, Non-MDR): ≤ 0.25 mg/L | MIC ([1]; A. baumannii IHMA 1963732, Turkey 2019, MDR): 16 mg/L | MIC ([1]; A. baumannii IHMA 1967860, Spain 2019, Non-MDR): ≤ 0.25 mg/L | MIC ([1]; A. baumannii IHMA 1971673, Latvia 2019, MDR): 16 mg/L | MIC ([1]; A. baumannii IHMA 1975075, Israel 2019, Non-MDR): ≤ 0.25 mg/L | MIC ([1]; A. baumannii IHMA 1977077, Kuwait 2019, Non-MDR): ≤ 0.25 mg/L | MIC ([1]; A. baumannii IHMA 1983151, Greece 2019, MDR): 8 mg/L | MIC ([1]; A. baumannii IHMA 1984665, Lithuania 2019, MDR): 16 mg/L | MIC ([1]; A. baumannii IHMA 1986678, Turkey 2019, Non-MDR): ≤ 0.25 mg/L | MIC ([1]; A. baumannii IHMA 1986738, Turkey 2019, MDR): 16 mg/L | MIC ([1]; A. baumannii IHMA 1987162, Croatia 2019, MDR): 8 mg/L | MIC ([1]; A. baumannii IHMA 1993615, Turkey 2019, MDR): 8 mg/L | MIC ([1]; A. baumannii IHMA 1994284, Italy 2019, MDR): > 16 mg/L | MIC ([1]; A. baumannii IHMA 1995161, Czech Republic 2019, Non-MDR): ≤ 0.25 mg/L | MIC ([1]; A. baumannii IHMA 1997936, Morocco 2019, Non-MDR): ≤ 0.25 mg/L | MIC ([1]; A. baumannii IHMA 1999178, Belgium 2019, Non-MDR): ≤ 0.25 mg/L | MIC ([1]; A. baumannii IHMA 2003279, Turkey 2019, MDR): 8 mg/L | MIC ([1]; A. baumannii IHMA 2014367, Jordan 2019, Non-MDR): ≤ 0.25 mg/L | MIC ([1]; A. baumannii IHMA 2014931, South Africa 2019, Non-MDR): ≤ 0.25 mg/L | MIC ([1]; A. baumannii IHMA 2019315, Romania 2019, Non-MDR): ≤ 0.25 mg/L | MIC ([1]; A. baumannii IHMA 2020360, Croatia 2019, MDR): 16 mg/L | MIC ([1]; A. baumannii IHMA 2031511, Greece 2019, Non-MDR): ≤ 0.25 mg/L | MIC ([1]; A. baumannii IHMA 2031524, Greece 2019, MDR): 4 mg/L | MIC ([1]; A. baumannii IHMA 2034657, Tunisia 2019, Non-MDR): ≤ 0.25 mg/L | MIC ([1]; A. baumannii IHMA 2035089, Serbia 2019, MDR): 16 mg/L | MIC ([1]; A. baumannii IHMA 2035134, Serbia 2019, Non-MDR): ≤ 0.25 mg/L | MIC ([1]; A. baumannii IHMA 2038976, Hungary 2019, MDR): 8 mg/L | MIC ([1]; A. baumannii IHMA 2051503, Serbia 2019, MDR): 16 mg/L | MIC ([1]; A. baumannii IHMA 2058329, Slovenia 2019, Non-MDR): ≤ 0.25 mg/L | MIC ([1]; A. baumannii IHMA 2065587, France 2019, Non-MDR): ≤ 0.25 mg/L | MIC ([1]; A. baumannii IHMA 2099294, United Kingdom 2019, Non-MDR): ≤ 0.25 mg/L | MIC ([1]; A. baumannii IHMA 2129256, Qatar 2019, Non-MDR): ≤ 0.25 mg/L | MIC ([1]; A. baumannii IHMA 2154584, Israel 2020, MDR): 8 mg/L | MIC ([1]; A. baumannii IHMA 2155340, Kenya 2020, MDR): 16 mg/L | MIC ([1]; A. baumannii IHMA 2156634, Turkey 2020, MDR): 16 mg/L | MIC ([1]; A. baumannii IHMA 2156709, Turkey 2020, MDR): 16 mg/L | MIC ([1]; A. baumannii IHMA 2157614, Australia 2020, Non-MDR): ≤ 0.25 mg/L | MIC ([1]; A. baumannii IHMA 2177232, Lithuania 2020, MDR): 16 mg/L | MIC ([1]; A. baumannii IHMA 2177489, Lithuania 2020, MDR): 16 mg/L | MIC ([1]; A. baumannii IHMA 2178574, Ukraine 2020, Non-MDR): ≤ 0.25 mg/L | MIC ([1]; A. baumannii IHMA 2180134, Malaysia 2020, Non-MDR): 0.5 mg/L | MIC ([1]; A. baumannii IHMA 2180142, Malaysia 2020, MDR): 4 mg/L | MIC ([1]; A. baumannii IHMA 2181370, Morocco 2020, MDR): 8 mg/L | MIC ([1]; A. baumannii IHMA 2183729, Argentina 2020, MDR): 8 mg/L | MIC ([1]; A. baumannii IHMA 2183849, Argentina 2020, Non-MDR): ≤ 0.25 mg/L | MIC ([1]; A. baumannii IHMA 2184382, Japan 2020, Non-MDR): ≤ 0.25 mg/L | MIC ([1]; A. baumannii IHMA 2193375, Venezuela 2020, MDR): 8 mg/L | MIC ([1]; A. baumannii IHMA 2193485, Venezuela 2020, Non-MDR): ≤ 0.25 mg/L | MIC ([1]; A. baumannii IHMA 2193607, Venezuela 2020, MDR): 8 mg/L | MIC ([1]; A. baumannii IHMA 2195460, Italy 2020, MDR): 16 mg/L | MIC ([1]; A. baumannii IHMA 2196914, South Africa 2020, MDR): 16 mg/L | MIC ([1]; A. baumannii IHMA 2196959, South Africa 2020, MDR): 4 mg/L | MIC ([1]; A. baumannii IHMA 2203763, Spain 2020, MDR): > 16 mg/L | MIC ([1]; A. baumannii IHMA 2205144, Korea, South 2020, MDR): 16 mg/L | MIC ([1]; A. baumannii IHMA 2206459, Taiwan 2020, MDR): 16 mg/L | MIC ([1]; A. baumannii IHMA 2206507, Taiwan 2020, Non-MDR): ≤ 0.25 mg/L | MIC ([1]; A. baumannii IHMA 2212575, Hungary 2020, Non-MDR): ≤ 0.25 mg/L | MIC ([1]; A. baumannii IHMA 2215307, Hong Kong 2020, Non-MDR): ≤ 0.25 mg/L | MIC ([1]; A. baumannii IHMA 2216586, Taiwan 2020, MDR): 8 mg/L | MIC ([1]; A. baumannii IHMA 2223200, Colombia 2020, Non-MDR): ≤ 0.25 mg/L | MIC ([1]; A. baumannii IHMA 2224017, Panama 2020, MDR): 8 mg/L | MIC ([1]; A. baumannii IHMA 2224303, Panama 2020, Non-MDR): ≤ 0.25 mg/L | MIC ([1]; A. baumannii IHMA 2231797, Greece 2020, MDR): 8 mg/L | MIC ([1]; A. baumannii IHMA 2233099, Guatemala 2020, MDR): 8 mg/L | MIC ([1]; A. baumannii IHMA 2233430, Kazakhstan 2020, MDR): > 16 mg/L | MIC ([1]; A. baumannii IHMA 2233548, Kazakhstan 2020, Non-MDR): ≤ 0.25 mg/L | MIC ([1]; A. baumannii IHMA 2238964, Thailand 2020, MDR): 4 mg/L | MIC ([1]; A. baumannii IHMA 2239052, Thailand 2020, Non-MDR): ≤ 0.25 mg/L | MIC ([1]; A. baumannii IHMA 2261047, Belgium 2020, MDR): 8 mg/L | MIC ([1]; A. baumannii IHMA 2261633, Canada 2020, Non-MDR): ≤ 0.25 mg/L | MIC ([1]; A. baumannii IHMA 2274234, South Africa 2020, MDR): 8 mg/L | MIC ([1]; A. baumannii IHMA 2274364, South Africa 2020, MDR): 16 mg/L | MIC ([1]; A. baumannii IHMA 2275237, Chile 2020, Non-MDR): ≤ 0.25 mg/L | MIC ([1]; A. baumannii IHMA 2275751, Jordan 2020, MDR): 8 mg/L | MIC ([1]; A. baumannii IHMA 2316205, United States 2020, MDR): 16 mg/L | MIC50 ([1]; MDR n = 50): 8 mg/L | MIC90 ([1]; MDR n = 50): 16 mg/L | MIC50 ([1]; all isolates n = 100): 0.5 mg/L | MIC90 ([1]; all isolates n = 100): 16 mg/L | MIC50 ([1]; non-MDR n = 50): ≤ 0.25 mg/L | MIC90 ([1]; non-MDR n = 50): ≤ 0.25 mg/L | MIC ([1]; read-out: MAX (maximum MIC), non-MDR n = 50): 0.5 mg/L | MIC ([1]; read-out: MAX (maximum MIC; all strains inhibited), MDR n = 50): > 16 mg/L | MIC ([1]; read-out: MAX (maximum MIC; all strains inhibited), all isolates n = 100): > 16 mg/L | MIC ([1]; read-out: MIN (minimum MIC), MDR n = 50): 4 mg/L | MIC ([1]; read-out: MIN (minimum MIC), all isolates n = 100): ≤ 0.25 mg/L | MIC ([1]; read-out: MIN (minimum MIC), non-MDR n = 50): ≤ 0.25 mg/L | Percentage I ([1]; MDR n = 50): 12% | Percentage R ([1]; MDR n = 50): 88% | Percentage S ([1]; MDR n = 50): 0% | Percentage I ([1]; all n = 100, CLSI breakpoints): 6% | Percentage R ([1]; all n = 100, CLSI breakpoints): 44% | Percentage S ([1]; all n = 100, CLSI breakpoints): 50% | Percentage I ([1]; non-MDR n = 50): 0% | Percentage R ([1]; non-MDR n = 50): 0% | Percentage S ([1]; non-MDR n = 50): 100% | Cumulative % at MIC [2]: 30%
